According to PMC4868737, “BAY 1024767 blocks androgen receptor mutants found in castration-resistant prostate cancer patients” (Oncotarget, 2016):
Positions count from the first letter of the chain named.

How the values were obtained:
[1] = test system: 22Rv1 (AR H874Y, splice variants); test: Cell proliferation assay (Alamar Blue); assay type: cell-based; details: Homo sapiens, 22Rv1, 168 h
Method: (§1) All assays were performed in 96-well microtiter plates. […] LAPC-4 cells were plated at 4,000 cells/well, VCaP cells at 16,000 cells/well, LNCaP cells at 2,000 cells/well, 22Rv1 cells at 4,000 cells/well. After 1 day, the cells were treated with R1881 (0.1 nM final concentration, except for LAPC-4 where the final concentration was 1 nM) and compound (day 0). Cell number was determined by Alamar Blue staining (2 h). Fluorescence was measured in a Victor3 device (PerkinElmer, Waltham, MA, USA) with the excitation filter set at 530 nm and the emission filter set at 590 nm. C0 was defined as the signal measured at day 7 for cells treated only with R1881 and CI was defined as the signal measured at day 7 for cells grown without R1881 or compound.

[2] = test system: LAPC-4 (AR wild-type); test: Cell proliferation assay (Alamar Blue); assay type: cell-based; details: Homo sapiens, LAPC4, 168 h
Method: as §1

[3] = test system: LNCaP (AR 877A); test: Cell proliferation assay (Alamar Blue); assay type: cell-based; details: Homo sapiens, 168 h
Method: as §1

[4] = test system: VCaP (AR wild-type, overexpressed); test: Cell proliferation assay (Alamar Blue); assay type: cell-based; details: Homo sapiens, 168 h
Method: as §1

[5] = biological target: AR L701H (Homo sapiens, UniProt P10275, L701H/L702H); test: cell-based; details: IC50 (antagonistic activity)
[6] = biological target: T1, AR W741C (Homo sapiens, UniProt P10275, W742C); test: cell-based; details: IC50 (antagonistic activity)
T1 sequence (P10275 1-920 W742C): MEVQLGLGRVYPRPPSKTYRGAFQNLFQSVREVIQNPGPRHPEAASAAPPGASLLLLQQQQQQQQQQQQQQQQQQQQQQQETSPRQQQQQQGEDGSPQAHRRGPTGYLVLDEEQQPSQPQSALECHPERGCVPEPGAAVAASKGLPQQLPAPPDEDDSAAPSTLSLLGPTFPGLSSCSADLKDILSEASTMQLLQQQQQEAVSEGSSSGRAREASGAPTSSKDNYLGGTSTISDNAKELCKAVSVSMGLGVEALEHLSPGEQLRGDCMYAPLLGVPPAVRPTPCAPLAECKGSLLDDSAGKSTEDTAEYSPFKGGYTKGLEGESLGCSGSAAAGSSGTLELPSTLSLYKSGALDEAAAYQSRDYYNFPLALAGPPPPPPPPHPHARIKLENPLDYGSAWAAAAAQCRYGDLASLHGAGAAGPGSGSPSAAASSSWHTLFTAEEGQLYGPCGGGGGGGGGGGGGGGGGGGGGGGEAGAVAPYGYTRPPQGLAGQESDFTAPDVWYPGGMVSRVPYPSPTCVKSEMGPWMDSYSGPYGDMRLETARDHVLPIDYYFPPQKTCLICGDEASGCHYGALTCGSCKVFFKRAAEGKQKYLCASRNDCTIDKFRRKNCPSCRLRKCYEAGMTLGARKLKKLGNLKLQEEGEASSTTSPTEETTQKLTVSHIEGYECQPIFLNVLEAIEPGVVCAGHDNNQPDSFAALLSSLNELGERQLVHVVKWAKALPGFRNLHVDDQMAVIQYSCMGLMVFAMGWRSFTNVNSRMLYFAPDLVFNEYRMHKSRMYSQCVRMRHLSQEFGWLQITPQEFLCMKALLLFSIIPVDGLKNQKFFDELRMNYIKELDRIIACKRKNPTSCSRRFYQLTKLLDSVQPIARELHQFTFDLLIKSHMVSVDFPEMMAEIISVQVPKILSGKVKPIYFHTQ

[7] = biological target: AR H874Y (Homo sapiens, UniProt P10275, H875Y); test: cell-based; details: IC50 (antagonistic activity)
[8] = biological target: AR M895T (Homo sapiens, UniProt P10275, M895T/M896T); test: cell-based; details: IC50 (antagonistic activity)
[9] = biological target: T2, AR M895V (Homo sapiens, UniProt P10275, M895V/M896V); test: cell-based; details: IC50 (antagonistic activity)
T2 sequence (P10275 1-920 M895V/M896V): T1 sequence (P10275 1-920 W742C) with C742W, M895V, M896V

[10] = test system: AR wild-type and the mutants E709Y, V715M, W741C and H874Y; test: Immunofluorescence of AR sub-cellular localization in transfected COS-7 cells; details: 4 h
Method: For staining, culture medium was removed and the cells were washed three times with PBS. […] The cells were then washed, stained with 300 nM DAPI in PBS for 5 min, and sealed with a coverslip. Cells were imaged on an LSM700 confocal laser scanning microscope (Zeiss, Göttingen, Germany), using a 25X objective. Quantification of COS-7 cells was performed on 25 cells in two replicates using ImageJ software.

**Q.** Which results are given for `CC(C)(O)COc1ccc(CN2C(=S)N(c3ccc(C#N)c(C(F)(F)F)c3)C(=O)C2(C)C)cn1` [BAY 1024767]?
**A.** GI50 [1]: 0.041 µM; GI50 [2]: 0.046 µM; GI50 [3]: 0.221 µM; GI50 [4]: 0.229 µM; IC50 ([5]; R1881 1 nM): 0.718 µM; IC50 ([5]; R1881 10 nM): 1.38 µM; IC50 ([6]; R1881 0.1 nM): 0.049 µM; IC50 ([6]; R1881 1 nM): 0.19 µM; IC50 ([6]; R1881 10 nM): 0.89 µM; IC50 ([7]; R1881 0.1 nM): 0.031 µM; IC50 ([7]; R1881 1 nM): 0.16 µM; IC50 ([8]; R1881 1 nM): 0.037 µM; IC50 ([8]; R1881 10 nM): 0.22 µM; IC50 ([9]; R1881 0.1 nM): 0.011 µM; IC50 ([9]; R1881 1 nM): 0.031 µM; IC50 ([9]; R1881 10 nM): 0.33 µM; AR nuclear translocation in the presence of R1881 ([10]; 1 nM R1881, 1 μM BAY 1024767): did not prevent nuclear translocation; AR nuclear localization in the absence of R1881 ([10]; 1 μM BAY 1024767 or 5 μM enzalutamide): promoted nuclear localization
